Reference: patent US9839640B2, “Methods of treating eye diseases associated with inflammation and vascular proliferation” (OccuRx Pty Ltd, priority 2010, dated 2017)

What was measured:
Type in all cases: in vivo, rat
leukocytes in the retina [1] = assay: Leukostasis, rhodamine-coupled Concanavalin A staining of retina (FT061 study)
Procedure: (§1) Sixty, six-week old female, heterozygous (mRen-2) 27 rats (St. Vincent's Hospital Animal House, Melbourne, Australia) were assigned to receive either 55 mg/kg of streptozotocin (STZ) (Sigma, St. Louis, USA) diluted in 0.1 M citrate buffer, pH 4.5 or citrate buffer alone (non-diabetic control) by tail vein injection following an overnight fast. Rats were randomly assigned to receive (n=15/group) treatment with either FT061 (100 mg/kg/day gavage) or vehicle for 8 weeks. Non-diabetic animals (n=15) served as controls. Each week, rats were weighed and their blood glucose levels were measured (Accu-check Advantage II Blood Glucose Monitor, Roche Diagnostics, USA) and only STZ-treated animals with blood glucose >15 mmol/L were considered diabetic. Every 4 weeks, SBP was determined in preheated conscious rats via tail-cuff plethysmography using a non-invasive blood pressure (NIBP) controller and Powerlab (AD instruments, NSW, Australia). Diabetic rats received a daily injection of insulin (2-4 units intraperitoneally; Humulin NPH, Eli Lilly and Co., Indianapolis, Ind.) to reduce mortality and to promote weight gain.
At the end of the study, rats were anaesthetized with Lethobarb (60 mg/kg) and the chest cavity was opened. […] The total number of leukocytes was counted per retina. […]

ICAM-1 mRNA [2] = assay: Real time PCR of retinal ICAM-1 mRNA (FT061 study); details: FIG. 8; diabetic rats, FT061 100 mg/kg/day 8 weeks, compared to controls and untreated diabetes
Procedure: as §1, with “Diabetic rats received a daily injection of insulin (2-4 units intraperitoneally; Humulin NPH, Eli Lilly and Co., Indianapolis, Ind.) to reduce mortality and to promote weight gain.” left out
(§2) At the end of the study, rats were anaesthetized with lethobarb (60 mg/kg), eyes were enucleated and retinae dissected and placed in RNAlater (#R0901, Sigma-Aldrich). […] RNA concentration was determined on a Nanodrop 3.1.2, after which 1 μg of RNA was DNase treated (DNA-free kit, Ambion) and reverse transcribed (First Strand cDNA Synthesis Kit for RT-PCR, Roche). […]

VEGF mRNA = assay: Real time PCR of retinal VEGF mRNA (FT061 study); details: FIG. 9; diabetic rats, FT061 100 mg/kg/day 8 weeks, compared to controls and untreated diabetes
Procedure: as §1, with “Diabetic rats received a daily injection of insulin (2-4 units intraperitoneally; Humulin NPH, Eli Lilly and Co., Indianapolis, Ind.) to reduce mortality and to promote weight gain.” left out
as §2

leukocytes in the retina [3] = assay: Leukostasis (short term study), rhodamine-coupled Concanavalin A staining of retina
Procedure: (§3) Ninety, six-week old female, heterozygous (mRen-2) 27 rats (St. Vincent's Hospital Animal House, Melbourne, Australia) were assigned to receive either 55 mg/kg of streptozotocin (STZ) (Sigma, St. Louis, USA) diluted in 0.1 M citrate buffer, pH 4.5 or citrate buffer alone (non-diabetic control) by tail vein injection following an overnight fast. In short term study, rats were randomly assigned to receive (n=10/group) treatment with either FT011 (100 mg/kg bid gavage) or vehicle for 8 weeks. Non-diabetic animals (n=10) served as controls. In the long term study, at 16 weeks of STZ diabetes rats were randomly assigned to either treatment (n=15/group) with, FT011 (50 mg/kg/day BID), FT011 (100 mg/kg BID) or no treatment for a further 16 weeks. Non-diabetic animals (n=15) served as controls. Each week, rats were weighed and their blood glucose levels were measured (Accu-check Advantage II Blood Glucose Monitor, Roche Diagnostics, USA) and only STZ-treated animals with blood glucose >15 mmol/L were considered diabetic. Every 4 weeks, SBP was determined in preheated conscious rats via tail-cuff plethysmography using a non-invasive blood pressure (NIBP) controller and Powerlab (AD instruments, NSW, Australia). Haemoglobin A1c (HbA1c) was measured by HPLC at the end of the study in the Department of Pathology, St Vincent's Hospital. […]

acellular capillaries = assay: Trypsin digest, acellular capillaries in PAS stained retina (long term study 32 weeks); details: diabetic rats, 100 mg/kg/day FT011, long term study
Procedure: as §3

ICAM-1 mRNA [4] = assay: Real time PCR of retinal ICAM-1 mRNA (short term study); details: FIG. 3; diabetic rats treated with FT011, short term 8 week study; normalised to 18S rRNA
Procedure: as §3

[5] = Animal characteristics (32 weeks study), STZ diabetic (mRen-2) 27 rats treated with FT011
Procedure: as §3

[6] = Animal characteristics (8 weeks study), STZ diabetic (mRen-2) 27 rats treated with FT011; details: FT011 200 mg/kg/day (100 mg/kg bid gavage), P < 0.05 versus untreated diabetes
Procedure: as §3

Row | Compound | total number of leukocytes in the retina (leukocytes in the retina [1]; FIG. 6, diabetic rats, FT061 100 mg/kg/day gavage 8 weeks, compared to untreated diabetic rats) | leukostasis (representative photomicrographs) (leukocytes in the retina [1]; FIG. 7, diabetic rats treated with FT061) | retinal ICAM-1 mRNA levels (ICAM-1 mRNA [2]) | retinal VEGF mRNA levels (VEGF mRNA) | total number of leukocytes in the retina (leukocytes in the retina [3]; FIG. 1, diabetic rats, FT011 100 mg/kg bid gavage 8 weeks, compared to untreated diabetic rats) | leukostasis (representative micrographs) (leukocytes in the retina [3]; FIG. 2, diabetic rats treated with FT011, short term study) | number of acellular capillaries per field (acellular capillaries; FIG. 4, compared to untreated diabetic rats) | acellular capillaries (pericyte ghost), representative micrographs (acellular capillaries; FIG. 5) | retinal ICAM-1 mRNA levels (ICAM-1 mRNA [4]) | HbA1C ([5]; FT011 100 mk/kg/day, P < 0.05 versus control) [%] | HbA1C ([5]; FT011 200 mk/kg/day, P < 0.05 versus untreated diabetes) [%] | HbA1C [6] [%]
1 | O=C(/C=C/c1ccc(OC(F)F)c(OC(F)F)c1)Nc1ccccc1C(=O)O [FT061] | significantly less | significantly reduced leukostasis | reduction in ICAM-1 mRNA levels | reduction in VEGF mRNA levels | – | – | – | – | – | – | – | –
2 | C#CCOc1ccc(/C=C/C(=O)Nc2ccccc2C(=O)O)cc1OC [FT011] | – | – | – | – | significantly less | significantly reduced leukostasis | less acellular capillaries | pericyte ghosts were not apparent | reduction in ICAM-1 mRNA levels | 7.65 ± 0.25 | 6.58 ± 0.37 | 8.9 ± 0.50
